According to publication PMC2248166, “Quantitative peptide binding motifs for 19 human and mouse MHC class I molecules derived using positional scanning combinatorial peptide libraries” (Immunome Research, 2008):

Key:
HLA B*5801 = HLA B*5801 (Homo sapiens, UniProt P01889, A329T/C349S/D201E/D98Y/E176V/E187L/E204Q/E69T/G107R/I218V/I90N/K202T/L105A/L119I/N104I/N87E/Q89R/Q94S/R106L/R155S/R180L/R86G/S101N/S121R/S35A/S48A/T118I/V127L/V306I/V36M/Y140S/Y91M); assay type: binding
HLA B*5301 = HLA B*5301 (Homo sapiens, UniProt P01889, A329T/A93T/A95T/C349S/D201E/D98Y/E176V/E187L/E204Q/E69T/G107R/I218V/K202T/L105A/L119I/N104I/Q94N/R106L/R155S/R180L/S101N/S121R/S35A/S48A/T118I/V127L/V306I/V36M/Y140S/Y91F); assay type: binding
HLA B*5401 = HLA B*5401 (Homo sapiens, UniProt P01889, A329T/C349S/D138N/D201E/E176V/E187T/E204Q/E69G/I76V/K202T/L119W/R155S/R180L/S121T/S35A/S48A/V127L/V306I/V36M/Y140L); assay type: binding
HLA B*1501 = HLA B*1501 (Homo sapiens, UniProt P01889, A329T/A93T/A95T/C349S/D201E/D98Y/E187L/E204Q/E69M/E70A/K202T/N87E/Q94N/R155S/R180W/S121R/S35A/S48A/V306I/V36M/Y140S/Y91S); test: biochemical; assay type: binding
HLA A*3201 = HLA A*3201 (Homo sapiens, UniProt P04439, A270S/D101S/D185E/E176V/E277Q/F133L/G103R/G107R/G231S/H175R/I121M/I218V/I322F/K168Q/L105A/L300P/L318F/M331R/P208A/P217A/Q94H/R106L/R138Q/S129P/T104I/T323A/T345S/V100E/V321M/V358M); test: biochemical; assay type: binding
H-2 D^b = H-2 D^b (Mus musculus, UniProt P01899); assay type: binding
HLA A*0201 = HLA A*0201 (Homo sapiens, UniProt P04439, D140Y/D185E/D98H/E176V/E277Q/G131W/G231S/I119V/I121R/I166T/I218V/L300P/L318F/N151K/N90K/P208A/P217A/Q86G/Q94H/R138H/R169H/T345S); details: positional scanning combinatorial 9-mer library; normalized to 1.0 for the best residue at each position
HLA B*0702 = HLA B*0702 (Homo sapiens, UniProt P01889); assay type: binding; details: positional scanning combinatorial 9-mer library; normalized to 1.0 for the best residue at each position
HLA A*3001 = HLA A*3001 (Homo sapiens, UniProt P04439, D140H/D185E/E176W/F33S/G80R/H175R/K168Q/R138E/R41S); test: biochemical; assay type: binding
HLA B*5101 = HLA B*5101 (Homo sapiens, UniProt P01889, A329T/A93T/A95T/C349S/D138N/D201E/D98Y/E187L/E204Q/E69T/G107R/I218V/K202T/L105A/L119W/N104I/Q94N/R106L/R155S/R180L/S101N/S121T/S35A/S48A/V306I/V36M/Y195H/Y91F); assay type: binding
H-2 D^d = H-2 D^d (Mus musculus, UniProt P01900); assay type: binding
HLA B*3501 = HLA B*3501 (Homo sapiens, UniProt P01889, A329T/A93T/A95T/C349S/D201E/D98Y/E176V/E187L/E204Q/E69T/I218V/K202T/L119I/Q94N/R155S/R180L/S121R/S35A/S48A/T118I/V127L/V306I/V36M/Y140S/Y91F); assay type: binding
HLA A*6802 = HLA A*6802 (Homo sapiens, UniProt P04439, A269V/D140Y/D185E/E176V/E277Q/E87N/F33Y/G231S/I121R/I166T/I218V/L180W/L300P/L318F/N151K/P208A/P217A/Q86R/R138H/R169H/S129P/T345S/V36M); assay type: binding
HLA B*5802 = HLA B*5802 (Homo sapiens, UniProt P01889, A329T/C349S/D201E/D98Y/E176V/E187L/E204Q/E69T/G107R/I218V/I90N/K202T/L105A/N104I/N87E/Q89R/Q94S/R106L/R155S/R180L/R86G/S101N/S121W/S35A/S48A/V127L/V306I/V36M/Y140S/Y91M); assay type: binding
HLA B*1503 = HLA B*1503 (Homo sapiens, UniProt P01889, A329T/A93T/A95T/C349S/D201E/D98Y/E187L/E204Q/K202T/N87E/Q94N/R155S/R180L/S121R/S35A/V306I/V36M/Y140S/Y91S); test: biochemical; assay type: binding
HLA B*0801 = HLA B*0801 (Homo sapiens, UniProt P01889, A93T/A95T/D138N/E176V/E187T/K202T/Q94N/R180D/S35A/V36M/Y33D/Y91F); test: biochemical; assay type: binding
HLA B*2705 = HLA B*2705 (Homo sapiens, UniProt P01889, D138H/D201E/E176V/E204Q/G107R/H137Y/K202T/N104T/N87E/Q56L/Q94K/R106L/R155S/R180L/S101D/S121N/S48T/Y140D/Y33H/Y91C); assay type: binding; details: positional scanning combinatorial 9-mer library; normalized to 1.0 for the best residue at each position
H-2 K^k = H-2 K^k (Mus musculus, UniProt P04223); assay type: binding
Chain of H-2 K^k (P01887 21-119): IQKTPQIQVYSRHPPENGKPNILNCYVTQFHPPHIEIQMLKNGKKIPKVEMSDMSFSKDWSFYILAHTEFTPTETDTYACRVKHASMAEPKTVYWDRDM
Chain of H-2 K^k (P04223 22-369): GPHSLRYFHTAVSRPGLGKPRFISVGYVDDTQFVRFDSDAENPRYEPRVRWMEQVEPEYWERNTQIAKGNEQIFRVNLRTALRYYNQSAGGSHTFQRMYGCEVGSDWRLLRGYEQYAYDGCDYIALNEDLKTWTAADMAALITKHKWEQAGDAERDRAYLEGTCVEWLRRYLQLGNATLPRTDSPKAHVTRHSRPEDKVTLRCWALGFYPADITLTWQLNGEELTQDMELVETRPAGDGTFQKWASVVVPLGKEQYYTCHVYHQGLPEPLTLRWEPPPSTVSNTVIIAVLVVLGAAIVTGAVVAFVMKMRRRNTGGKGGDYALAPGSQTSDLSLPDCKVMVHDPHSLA

Chain of H-2 D^b (P01887 21-119): as the sequence (P01887 21-119) above
Chain of H-2 D^b (P01899 25-362): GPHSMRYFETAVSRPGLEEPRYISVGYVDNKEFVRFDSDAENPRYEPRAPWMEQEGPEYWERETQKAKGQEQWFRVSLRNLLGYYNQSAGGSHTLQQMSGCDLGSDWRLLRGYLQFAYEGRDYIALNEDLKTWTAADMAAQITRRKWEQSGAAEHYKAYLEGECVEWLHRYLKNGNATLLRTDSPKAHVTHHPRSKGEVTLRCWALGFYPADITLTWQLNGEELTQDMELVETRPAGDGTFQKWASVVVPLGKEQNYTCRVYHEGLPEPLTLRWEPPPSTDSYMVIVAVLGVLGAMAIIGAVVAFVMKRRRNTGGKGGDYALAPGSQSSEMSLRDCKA
Chain of H-2 D^d (P01900 whole entry, looked up): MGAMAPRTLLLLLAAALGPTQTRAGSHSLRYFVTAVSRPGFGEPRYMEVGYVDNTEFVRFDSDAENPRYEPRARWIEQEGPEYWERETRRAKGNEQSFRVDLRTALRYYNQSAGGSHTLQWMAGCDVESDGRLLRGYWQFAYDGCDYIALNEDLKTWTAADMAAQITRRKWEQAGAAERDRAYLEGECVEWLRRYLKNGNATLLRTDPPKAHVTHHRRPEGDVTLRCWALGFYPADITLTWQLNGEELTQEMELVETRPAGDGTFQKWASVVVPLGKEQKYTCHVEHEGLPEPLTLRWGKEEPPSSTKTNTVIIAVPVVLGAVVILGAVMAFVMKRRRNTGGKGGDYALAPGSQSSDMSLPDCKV

| Sequence | Normalized average relative binding affinity (ARB), HLA B*5801 (HLA B*5801) | Normalized average relative binding affinity (ARB), HLA B*5301 (HLA B*5301) | Normalized average relative binding affinity (ARB), HLA B*5401 (HLA B*5401) | Normalized average relative binding affinity (ARB), HLA B*1501 (HLA B*1501) | Normalized average relative binding affinity (ARB), HLA A*3201 (HLA A*3201) | Normalized average relative binding affinity (ARB), H-2 Db (H-2 D^b) | Normalized average relative binding affinity (ARB), HLA A*0201 (HLA A*0201) | Normalized average relative binding affinity (ARB), HLA B*0702 (HLA B*0702) | Normalized average relative binding affinity (ARB), HLA A*3001 (HLA A*3001) | Normalized average relative binding affinity (ARB), HLA B*5101 (HLA B*5101) | Normalized average relative binding affinity (ARB), H-2 Dd (H-2 D^d) | Normalized average relative binding affinity (ARB), HLA B*3501 (HLA B*3501) | Normalized average relative binding affinity (ARB), HLA A*6802 (HLA A*6802) | Normalized average relative binding affinity (ARB), HLA B*5802 (HLA B*5802) | Normalized average relative binding affinity (ARB), HLA B*1503 (HLA B*1503) | Normalized average relative binding affinity (ARB), HLA B*0801 (HLA B*0801) | Normalized average relative binding affinity (ARB), HLA B*2705 (HLA B*2705) | Normalized average relative binding affinity (ARB), H-2 Kk (H-2 K^k) |
| --- | --- | --- | --- | --- | --- | --- | --- | --- | --- | --- | --- | --- | --- | --- | --- | --- | --- | --- |
| XXNXXXXXX [3064.0052] | 0.88 | 0.22 | 0.14 | 0.46 | 0.76 | 0.25 | 0.16 | 0.077 | 0.017 | 0.27 | 0.0028 | 0.32 | 0.27 | 0.098 | 0.24 | 0.11 | 0.23 | 0.40 |
| XXPXXXXXX [3064.0053] | 0.042 | 0.010 | 0.013 | 0.32 | 0.13 | 0.38 | 0.056 | 0.014 | 0.0036 | 0.42 | 1.0 | 0.089 | 0.043 | 0.047 | 0.058 | 0.072 | 0.027 | 0.035 |
| XXQXXXXXX [3064.0054] | 0.15 | 0.13 | 0.055 | 0.30 | 0.45 | 0.098 | 0.20 | 0.19 | 0.014 | 0.20 | 0.012 | 0.27 | 0.12 | 0.098 | 0.062 | 0.062 | 0.12 | 0.42 |
| XXRXXXXXX [3064.0055] | 0.058 | 0.029 | 0.062 | 0.69 | 0.19 | 0.023 | 0.019 | 0.63 | 1.0 | 0.33 | 0.0031 | 0.074 | 0.018 | 0.38 | 0.25 | 1.0 | 0.16 | 0.19 |
| XXSXXXXXX [3064.0056] | 0.33 | 0.15 | 0.014 | 0.41 | 0.29 | 0.084 | 0.17 | 0.093 | 0.040 | 0.16 | 0.0061 | 0.11 | 0.50 | 0.066 | 0.41 | 0.057 | 0.27 | 0.43 |
| XXTXXXXXX [3064.0057] | 0.39 | 0.045 | 0.012 | 0.12 | 0.16 | 0.057 | 0.14 | 0.035 | 0.0040 | 0.14 | 0.0048 | 0.14 | 0.14 | 0.16 | 0.23 | 0.054 | 0.26 | 0.11 |
